From patent publication US11644466B2, “Methods for treating, preventing and predicting risk of developing breast cancer” (Dana-Farber Cancer Institute, Inc., priority 2012, dated 2023)
“Also recorded” adds a separate entry of the source.

System: normal human breast tissues (breast epithelial cells)
Test: Tissue explant (tissue slice) culture of normal breast tissue with pathway inhibitors, hormones or tamoxifen: frequency of BrdU+, Ki67+ and p27+ cells
Format: cell-based
Settings: for number of cells incorporating BrdU: BrdU pulse 5 hrs; for frequency (numbers) of p27+ cells: normal breast tissue explant / tissue slice culture with inhibitor or tamoxifen, 8-10 days, FIG. 24, FIG. 26C
[1] = normal breast tissue explant culture with inhibitor for 8-10 days, versus control, FIG. 24

Experimental: The multicolor immunofluorescence for p27 and Ki67 was performed by incubating the samples with monoclonal antibody anti-p27 (1:100 dilution) and polyclonal antibody anti-Ki67 (1:50 dilution) for one hour at room temperature followed by goat anti-mouse IgG1 Alexa 555-conjugated (Invitrogen, 1:100 dilution, for detection of p27) and goat anti-rabbit Alexa 488-conjugated (Invitrogen, 1:100 dilution, for detection of Ki67) for 30 minutes at room temperature. Multicolor immunofluorescence for pSMAD2 (1:50 dilution), pEGFR (1:50 dilution) and Axin2 (1:20 dilution) were performed by incubation for 2 h at room temperature or overnight at 4° C. followed by secondary antibody Rabbit Alexa 488 conjugated (Invitrogen, 1:100 dilution for pSMAD2 and pEGFR) or mouse IgG1 Alexa-488 conjugated (Invitrogen 1:100 dilution) for Axin2 for 30 minutes at room temperature.
Scoring for the expression of each marker was done as follows: p27 fluorescence intensity was scored in the nuclei of 20 randomly selected cells using the ImageJ 1.43r software; Sox17 and COX2 expression was inferred by the combination of two variables: 1) the percentage cells expressing each marker, and 2) the intensity of each marker transformed into a categorical variable based on 0 no expression, 1 weak expression, 2 moderate expression and 3 high expression; the percentage of p27+, Ki67+ and BrdU+ cells was estimated by counting an average of 1000 cells/sample in the case of the mammary epithelium for premenopausal, postmenopausal and high-low density cases, and an average of 2,000 cells in the case of the tissue slices cultures. % of pSMAD2+ cells was estimated by counting an average of 600 cells/sample. For pEGFR and Axin2 fluorescence intensity measurement, mean fluorescence intensity was measured using Image J 1.43r software by counting an average of 600 cells/sample corrected by area and subtracting the average of background fluorescence intensity. […] For p27 and AR staining, p27 (1:100 dilution and AR (1:30 dilution) antibodies were incubated overnight at 40 C followed by incubation at RT for 1 h with subsequent staining by goat anti-mouse IgG1 Alexa 555-conjugated (Invitrogen, 1:100 dilution, for detection of p27) and anti-rabbit IgG Alexa 488-conjugated (Invitrogen, 1:80 dilution). Percentage of p27+, AR+, ER+ cells was estimated by counting 500-1000 cells/sample. Nuclear staining with DAPI and multiple fluorescence images from each section were acquired with 40× plan apo objective, following procedure described above.
Normal human breast tissues were collected from reduction mammoplasties, transported in ice-cold DMEM-F12 medium, and processed within 24 hrs. For organ cultures, thin (˜1 mm thick) slices of tissue were cut from epithelium-enriched areas and cultured for 8 days in 6-well plates using co-culture inserts to optimize the tissue/medium contact surface and changing medium (2 ml/well) every 24 hrs. […] Following 8 days of culture, labeled tissue slices were pulse with bromo-deoxy-uridine (30 μM final concentration) for 5 hrs before fixing the tissue in buffered formalin at room temperature for 24 hrs followed by embedding in paraffin. Experiments were performed in triplicates using tissue from different regions of the same breast, uncultured tissue and tissue cultured without any drugs as controls.

COc1cc2ncnc(Nc3cccc(Cl)c3)c2cc1OC [EGFR, tyrphostin AG1478]
number of cells incorporating BrdU [1]: significantly (p<0.05) decreased
fraction of Ki67+ cells [1]: decreased

CC1=C2C[C@H]3[C@@H](CC=C4C[C@@H](O)CC[C@@]43C)[C@@H]2CC[C@]12O[C@@H]1C[C@H](C)CN[C@H]1[C@H]2C [Hh, cyclopamine]
number of cells incorporating BrdU [1]: significantly (p<0.05) decreased

COc1cc([C@@H]2c3cc4c(cc3[C@H](O)[C@H]3COC(=O)[C@@H]23)OCO4)cc(OC)c1OC [IGFR, picropodophylotoxin]
frequency (numbers) of p27+ cells: most pronouncedly decreased; also recorded: decreased
number of cells incorporating BrdU [1]: significantly (p<0.05) decreased

c1ccc(-c2nn3c(c2-c2ccnc4cc(OCCN5CCOCC5)ccc24)CCC3)nc1 [TGFBR inhibitor, LY2109761]
frequency (numbers) of p27+ cells: most pronouncedly decreased; also recorded: decreased
number of cells incorporating BrdU [1]: opposite effect

C[C@]12CC[C@@H]3c4ccc(O)cc4CC[C@H]3[C@@H]1CC[C@@H]2O [estrogen, estradiol]
numbers of p27+ cells (tissue slices treated with concentrations of estrogen present in follicular phase (0.5 μM of estradiol for 8 days), FIG. 26B): high

CC/C(=C(\c1ccccc1)c1ccc(OCCN(C)C)cc1)c1ccccc1 [tamoxifen]
frequency (numbers) of p27+ cells: high
